Patent US20130190285A1, “METHOD OF TREATING PANCREATIC CANCER” (Niiki Pharma Inc., priority 2009, published 2013)

Key:
[1] = test system: SW480; details: colon cancer cell line SW480; cited from earlier work
[2] = test system: HT29; details: colon cancer cell line HT29; cited from earlier work
[3] = test system: PANC-1 cells; details: cited from earlier work
[4] = test system: pancreatic cancer; details: cited from earlier work
[5] = test system: pancreatic tumor cell line MIA PaCa2; assay: MTT assay in 3-dimentional tumor model (HuBiogel); type: cell-based; details: MIA PaCa2 3-D tumor beads
Procedure: (§1) The compound sodium trans-[tetrachlorobis(1H-indazole)ruthenate(III)] was tested in a 3-dimentional tumor model derived from pancreatic tumor cell line MIA PaCa2. Specifically, cells were trypsinized, washed, counted by trypan blue exclusion. Tumor beads were then prepared by mixing 20,000 cells/10 μl of HuBiogel (4 mg/mL) (See U.S. patent application Ser. No. 10/546,506, which is incorporated herein by reference). The 3-D tumor beads were cultivated for 72 hours in multi-well plates with complete media (10% FBS) in a 37° C. incubator+5% CO2. Mini-tumors were treated with various concentrations of the test compound sodium trans-[tetrachlorobis(1H-indazole)ruthenate(III)] in media (final 0.2-0.3% DMSO) or control (DMSO). Repeated drug treatment was done by removing the culture media and replacing with fresh media with drug compound or DMSO. On Day 3, MTT assay and live-cell staining with Calcein AM were performed (5 beads/assay set).
(§2) Statistical analysis of data sets (Average, T-test, GI-50) was performed using MS-Excel program.

[6] = test system: pancreatic tumor cell line MIA PaCa2; assay: live-cell staining with Calcein AM in 3-dimentional tumor model (HuBiogel); type: cell-based; details: MIA PaCa2 3-D tumor beads, Day 3
Procedure: as §1, §2

[7] = test system: Capan-1; details: Capan-1, 72 hours post-treatment, MTT
Procedure: (§3) To test the activities of sodium trans-[tetrachlorobis(1H-indazole)ruthenate(III)], ATCC's MTT Cell Proliferation Assay® was performed using human pancreatic cancer cell lines PANC-1 and Capan-1. Stock cultures were allowed to grow to 70-80% confluence for this study. The anti-proliferative activity of sodium trans-[tetrachlorobis(1H-indazole)ruthenate(III)], against the indicated cell lines was evaluated in vitro using the ATCC's MTT Cell Proliferation Assay (Catalog No. 30-1010K). PANC-1 cells were grown in DMEM medium with 10% FBS and 1% pen/strep/glutamine. Capan-1 cells were grown using IMDM medium 20% FBS and 1% of pen/strep/glutamine. Panc 1 and Capan-1 cell plates were seeded with 6000 cells/well and 15,000 cells/well, respectively, and treated with sodium trans-[tetrachlorobis(1H-indazole)ruthenate(III)] at 1,000 μM, or a series of 4× dilutions thereof (250 μM, 62.5 μM, etc.). 100 μl of medium was removed from each well at 72 hours post-treatment and MTT reagent was added to each well. The plates were incubated plate at 37° C. for 4 hours and then 100 μl of detergent was added. The plates were left overnight at room temperature in the dark and was read on a plate reader using SoftMax® Pro (version 5.2, Molecular Devices).
(§4) The absorbance data was analyzed as follows: Absorbance values were converted to Percent of Control and plotted against test agent concentrations for IC50 calculations using SoftMax® Pro (version 5.2, Molecular Devices). The plate blank signal average was subtracted from all wells prior to calculating the Percent of Control. Percent of Control values were calculated by dividing the absorbance values for each test well by the No Drug Control average (column 11 values; cells+vehicle control) and multiplying by 100. Plots of Compound Concentration versus Percent of Control were analyzed using the 4-parameter equation to obtain IC50 values and other parameters that describe the sigmoidal dose response curve.
(§5) The IC50 value for the test agents was estimated by curve-fitting the data using the following four parameter-logistic equation: […]

[8] = test system: PANC-1
Procedure: as §3, §4, §5

[Cl-].[Cl-].[Cl-].[Cl-].[Ru+3].c1ccc2[nH][nH+]cc2c1.c1ccc2[nH]ncc2c1.c1ccc2[nH]ncc2c1 [Indazolium trans-[tetrachlorobis(1H-indazole)ruthenate(III)], reference compound]
killing tumor cells [1]: effective in killing tumor cells
killing tumor cells [2]: effective in killing tumor cells

Nc1ccn([C@@H]2O[C@H](CO)[C@@H](O)C2(F)F)c(=O)n1 [gemcitabine]
sensitivity of PANC-1 cells to the drug [3]: resistant
efficacy in pancreatic cancer ([4]; weekly intravenous administration): effective

C#Cc1cccc(Nc2ncnc3cc(OCCOC)c(OCCOC)cc23)c1 [erlotinib]
sensitivity of PANC-1 cells to the drug [3]: resistant
median overall survival benefit ([4]; erlotinib in combination with gemcitabine, advanced-stage pancreatic cancer patients): less than four weeks

[Cl][Ru-]([Cl])([Cl])[Cl].[Na+].c1ccc2[nH]ncc2c1.c1ccc2[nH]ncc2c1 [sodium trans-[tetrachlorobis(1H-indazole)ruthenate(III)]]
tumor proliferation activity (MTT) ([5]; Day 3, FIG. 1): significantly inhibited tumor proliferation activity
GI50 ([5]; MTT assay on Day 3, read-out: average GI-50 (the drug concentration required for growth inhibition at 50%)): 35.7 µM
tumor killing in live-cell staining/image analysis [6]: dose-dependent tumor killing effective
IC50 [7]: 45.2 µM
IC50 ([8]; PANC-1, 72 hours post-treatment, MTT): 30.6 µM
activity in cells resistant to gemcitabine and erlotinib ([8]; PANC-1 cells): active
killing tumor cells [1]: effective in killing tumor cells
killing tumor cells [2]: effective in killing tumor cells
